MIC and time-kill profile data for one substance are collected here from patent US12728136B2, “Liposomal nano formulation of combinational antibiotics and the uses thereof” (Purdue Research Foundation, priority 2018, dated 2026).

Common to all, as to format: cell-based, Pseudomonas aeruginosa
Assay [1] concerns P. aeruginosa H131300444. In words: Minimum inhibitory concentration, broth microdilution. The note with it: clinical isolate P. aeruginosa H131300444. The method, then:
(§1) Briefly, fresh cultures of each strain were diluted in Cation-Adjusted Mueller-Hinton Broth (CAMHB; Mg^2+ at 12.2 mg/L and Ca^2+ at 23.0 mg/L [Oxoid, Hampshire, England]) giving an approximately inoculum of 10^^6 colony-forming units (CFU/ml) as the inocula. Drug concentrations of 0, 0.125, 0.25, 0.5, 1, 2, and 4 mg/L were derived from diluting the stock drug solution (5.12 mg/mL) with CAMHB.

For assay [2], the system named is P. aeruginosa H133880624. The description is as above. The note with it: clinical isolate P. aeruginosa H133880624. On the procedure:
as §1

Assay [3] concerns P. aeruginosa H131300444. In words: In vitro static time-kill experiment. The note with it: colistin 2 mg/L and/or ciprofloxacin 8 mg/L; 0-24 hrs; FIG. 13A. On the procedure:
(§2) All samples were dissolved in CAMHB and all experiments were performed with an initial inoculum of ~10^6 CFU/mL in 20 mL of CAMHB in 50 mL pyrogen-free and sterile polypropylene tubes. […] Serial samples (50 μL) were obtained at 0, 1, 3, 6 and 24 hrs for viable cell counting and determination of drug concentrations. All samples were centrifuged at 12000×g for 10 min and cell pellets were resuspended in 0.9% saline and diluted accordingly for viable counting on nutrient agar plates. The bacteria were incubated at 37° C. for 24 hrs and the limit of detection was 20 CFU/mL (equivalent to one colony per plate). The colonies were counted with a ProtoCOL colony counter (Synbiosis, Cambridge, United Kingdom).

For assay [4], the system named is P. aeruginosa H133880624. In words: In vitro static time-kill experiment. Conditions: colistin 2 mg/L and/or ciprofloxacin 8 mg/L; 0-24 hrs; FIG. 13B. The method, then:
as §2

Take Colistin sulfate: the MIC in assay [1] and in assay [2] was 128 µg/mL throughout. Besides, the time-kill profile entry in assay [3] and in assay [4] was “no antibacterial effect” throughout.
